Test system: α-synuclein cytotoxicity in M17-SYNwt cells
Assay: α-synuclein cytotoxicity assay: LDH leakage from paraquat-treated M17-SYNwt neuroblastoma cells;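 further: paraquat at 32 mM co-added with compound, 40 h exposure, LDH activity released into the culture medium measured, references are DMSO-only cells and paraquat plus DMSO cells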
Conditions: Homo sapiens, Neuroblastoma cell; for Emax: read-out: % Inhib.

Row | SMILES | EC50 | Emax
1 | COc1ccccc1C(=O)N1CCN(c2nc(Cc3ccc(F)cc3)ns2)CC1C (stereo not shown) [compound 133, 1-(2-methoxybenzoyl)-4-[3-(4-fluorobenzyl)-1,2,4-thiadiazol-5-yl]-2-methylpiperazine] | 290 nM | 118%
2 | COc1ccc(S(=O)(=O)N2CCN(c3nc(Cc4ccc(F)cc4)ns3)CC2)cc1 [compound 74, 1-[4-methoxyphenylsulfonyl]-4-[3-(4-fluorobenzyl)-1,2,4-thiadiazol-5-yl]piperazine] | 0.105 nM | 44%
3 | Cc1ccc(Cc2nsc(N3CCN(S(=O)(=O)c4ccc(Cl)cc4)CC3)n2)cc1 [compound 66, 1-[4-chlorophenylsulfonyl]-4-[3-(4-methylbenzyl)-1,2,4-thiadiazol-5-yl]piperazine] |  | 81%
4 | Cc1cccc(C)c1NC(=O)N1CCN(c2nc(Cc3ccc(F)cc3)ns2)CC1C (stereo not shown) [compound 19, N-(2,6-dimethylphenyl)-4-[3-(4-fluorobenzyl)-1,2,4-thiadiazol-5-yl]-2-methylpiperazine-1-carboxamide] | 200 nM | 95%
5 | O=C(NCCN1CCN(c2nc(Cc3ccc(F)cc3)ns2)CC1)c1cc(Cl)cc(Cl)c1 [compound 98, 3,5-dichloro-N-{2-[4-[3-(4-fluorobenzyl)-1,2,4-thiadiazol-5-yl]piperazin-1-yl]ethyl}benzamide] | 1420 nM | 102%
6 | Cc1ccc(Cc2nsc(N3CCN(S(=O)(=O)c4cccc(C(F)(F)F)c4)C(C)C3)n2)cc1 (stereo not shown) [compound 56, 1-[3-trifluoromethylphenylsulfonyl]-4-[3-(4-methylbenzyl)-1,2,4-thiadiazol-5-yl]-2-methylpiperazine] |  | 87%
7 | CCCCc1ccc(C(=O)NCCN2CCN(c3nc(Cc4ccc(F)cc4)ns3)CC2)cc1 [compound 95, 4-butyl-N-{2-[4-[3-(4-fluorobenzyl)-1,2,4-thiadiazol-5-yl]piperazin-1-yl]ethyl}benzamide] | 380 nM | 78%
8 | Cc1ccc(Cc2nsc(N3CCN(C(=O)c4ccc(Br)cc4)CC3)n2)cc1 [compound 164, 1-(4-bromobenzoyl)-4-[3-(4-methylbenzyl)-1,2,4-thiadiazol-5-yl]piperazine] | 3860 nM | 60%
9 | CCCCS(=O)(=O)N1CCN(c2nc(Cc3ccc(Cl)cc3)ns2)CC1 [compound 81, 1-(butylsulfonyl)-4-[3-(4-chlorobenzyl)-1,2,4-thiadiazol-5-yl]piperazine] | 350 nM | 80%
10 | O=C(NCCN1CCN(c2nc(Cc3ccccc3)ns2)CC1)c1cccc(F)c1 [compound 106, 3-fluoro-N-{2-[4-[3-benzyl-1,2,4-thiadiazol-5-yl]piperazin-1-yl]ethyl}benzamide] |  | 49%
11 | O=C(Nc1cccc(F)c1)N1CCN(c2nc(Cc3ccc(F)cc3)ns2)CC1 [compound 9, N-(3-fluorophenyl)-4-[3-(4-fluorobenzyl)-1,2,4-thiadiazol-5-yl]piperazine-1-carboxamide] | 520 nM | 53%
